Patent US8524304B2, “High-potency sweetener composition with probiotics/prebiotics and compositions sweetened therewith” (The Coca-Cola Company, priority 2005, dated 2013)

Legend:
[1] = Sensory evaluation of sweetness linger by a panel of experts; type: in vivo; set-up: key: 0: no sweetness linger; 1: very slight sweetness linger; 2: slight sweetness linger; 3: moderate sweetness linger; 4: moderately high sweetness linger; 5: high sweetness linger; conditions: scale 0-5
Description: Sensory evaluation of the samples prepared in Example Set G was carried out under the following protocol, similar to that described hereinabove. In this test protocol, none of the samples were swallowed. All samples were expectorated and the mouth was rinsed with water after the tasting. Immediately upon sensing maximal sweetness, the sample was expectorated, the mouth was rinsed with water and the rate of sweetness decay (“Sweetness Linger”) was measured, where attention was focused on the sweetness 3-4 min after the water rinse. After sample tasting was complete, a salty oyster cracker was chewed followed by a water rinse, and at least 5 minutes followed before tasting the next sample. The sweetness linger was rated by a panel of experts in the sensory evaluation of foods and beverages using the following scale: 0=no sweetness linger, 1=very slight sweetness linger, 2=slight sweetness linger, 3=moderate sweetness linger, 4=moderately high sweetness linger, 5=high sweetness linger.
The “Sweetness Linger” rating for sucrose observed by this protocol is defined as 0. The Sweetness Linger of a 500 ppm of REBA control sample is defined as 5. Experimental samples were tasted by the same protocol, always allowing sufficient time between samples to ensure re-equilibration of the sensory system. Re-tasting of control samples during the course of the experiment was allowed and encouraged. […]
Sweet taste improving compositions were combined with a REBA solution to determine their effect on sweetness linger, Screening of the initial sample, or further dilutions, allowed identification of concentrations which were just above-threshold, herein defined as “near-threshold concentrations.” The near-threshold additive concentrations, a 6- to 100-fold higher higher additive concentration (depending on the off-taste intensity), and a mid-level additive concentration (halfway between the near-threshold and higher additive concentration) were evaluated to determine the effect on sweetness linger of a REBA solution. […]

[2] = type: physicochemical
Description: A solution of rebaudioside A (>97% pure by HPLC ) was prepared in double distilled water (12.5 gm in 50 mL, 25% concentration) by stirring the mixture at 40° C. for 5 minutes. An amorphous form of rebaudioside A was formed by immediately using the clear solution for spray drying with the Lab-Plant spray drier SD-04 instrument (Lab-Plant Ltd., West Yorkshire, U.K.). The solution was fed through the feed pump into the nozzle atomizer which atomized it into a spray of droplets with the help of a constant flow of nitrogen/air. […] This dry powder (11-12 g, H2O 6.74%) was discharged continuously from the drying chamber and was collected in a bottle.

[3] = Rate of dissolution of rebaudioside A polymorph and amorphous forms in H2O at 25° C.; type: physicochemical

Structure (SMILES)	sweetness linger ([1]; Example Set G: citric acid/potassium citrate composition equivalent to a diet lemon-lime beverage, 400 ppm REBA base, sweetness 3-4 min after water rinse)	sweetness linger ([1]; Example Set H: carbon-treated water with phosphoric acid (75%) to pH 2.4-2.5, 500 ppm REBA base)	Sweetness Linger rating ([1]; control ratings defined for the protocol)	solubility in water at room temperature [2] [%]	Rate of dissolution in H2O at 25° C. [3]
C=C1C[C@@]23CC[C@H]4[C@@](C)(CCC[C@@]4(C)C(=O)O[C@@H]4O[C@H](CO)[C@@H](O)[C@H](O)[C@H]4O)[C@@H]2CC[C@]1(O[C@@H]1O[C@H](CO)[C@@H](O)[C@H](O[C@@H]2O[C@H](CO)[C@@H](O)[C@H](O)[C@H]2O)[C@H]1O[C@@H]1O[C@H](CO)[C@@H](O)[C@H](O)[C@H]1O)C3 [REBA, rebaudioside A]	5	5	5		
C=C1C[C@@]23CC[C@H]4[C@@](C)(CCC[C@@]4(C)C(=O)O[C@@H]4O[C@H](CO)[C@@H](O)[C@H](O)[C@H]4O)[C@@H]2CC[C@]1(O[C@@H]1O[C@H](CO)[C@@H](O)[C@H](O[C@@H]2O[C@H](CO)[C@@H](O)[C@H](O)[C@H]2O)[C@H]1O[C@@H]1O[C@H](CO)[C@@H](O)[C@H](O)[C@H]1O)C3 [Form 4, rebaudioside A]				> 35.0	High (>35%/5 %/5 minutes
